Source: paper PMC5218480 (PLoS ONE, 2017)

Tested on: MV-4-11 cells
Experiment: Gene expression microarray analysis (Affymetrix PrimeView) and GSEA
Type: cell-based, human
Set-up: RFU PODN (11730768_x_at) / Fold change /veh PODN (11730768_x_at) / RFU LINC00158 (11744669_a_at) / Fold change /veh LINC00158 (11744669_a_at) / RFU DUSP10 (11751237_a_at) / Fold change /veh DUSP10 (11751237_a_at) / RFU ID3 (11757404_x_at) / Fold change /veh ID3 (11757404_x_at) / RFU PLEKHG5 (11737974_s_at) / Fold change /veh PLEKHG5 (11737974_s_at) / RFU LRRC4B (11730491_at) / Fold change /veh LRRC4B (11730491_at) / RFU GIMAP4 (11747438_a_at) / Fold change /veh GIMAP4 (11747438_a_at) / RFU KRT8 (11758183_x_at) / Fold change /veh KRT8 (11758183_x_at) / RFU CNN1 (11734310_a_at) / Fold change /veh CNN1 (11734310_a_at) / RFU VPS37D (11726825_at) / Fold change /veh VPS37D (11726825_at) / RFU C10orf10 (11716522_x_at) / Fold change /veh C10orf10 (11716522_x_at) / RFU KIR2DL2 /// KIR2DL4 /// KIR2DL5A /// KIR2DL5B /// KIR2DS1 /// KIR2DS2 /// KIR2DS3 /// KIR2DS4 /// KIR3DL3 /// KIR3DL3 /// KIR3DS1 (11738374_at) / Fold change /veh KIR2DL2 /// KIR2DL4 /// KIR2DL5A /// KIR2DL5B /// KIR2DS1 /// KIR2DS2 /// KIR2DS3 /// KIR2DS4 /// KIR3DL3 /// KIR3DL3 /// KIR3DS1 (11738374_at) / RFU C1QL1 (11718748_at) / Fold change /veh C1QL1 (11718748_at) / RFU TMPRSS4 (11747572_a_at) / Fold change /veh TMPRSS4 (11747572_a_at) / RFU HAMP (11756126_x_at) / Fold change /veh HAMP (11756126_x_at) / RFU RNFT2 (11725882_a_at) / Fold change /veh RNFT2 (11725882_a_at) / RFU NR4A2 (11747474_a_at) / Fold change /veh NR4A2 (11747474_a_at) / RFU ABCC12 (11746883_a_at) / Fold change /veh ABCC12 (11746883_a_at) / RFU TMEM136 (11760407_x_at) / Fold change /veh TMEM136 (11760407_x_at) / RFU CLDN22 /// WWC2 (11732394_at) / Fold change /veh CLDN22 /// WWC2 (11732394_at) / RFU HLA-DPB1 (11760878_x_at) / Fold change /veh HLA-DPB1 (11760878_x_at) / RFU SPINT1 (11716480_a_at) / Fold change /veh SPINT1 (11716480_a_at) / RFU GAP43 (11754022_s_at) / Fold change /veh GAP43 (11754022_s_at) / RFU A4GNT (11735810_at) / Fold change /veh A4GNT (11735810_at) / RFU PRB3 (11715151_x_at) / Fold change /veh PRB3 (11715151_x_at) / RFU TUBB4B (11761932_at) / Fold change /veh TUBB4B (11761932_at) / RFU CAPN14 (11732068_a_at) / Fold change /veh CAPN14 (11732068_a_at) / RFU TMCC2 (11721928_a_at) / Fold change /veh TMCC2 (11721928_a_at) / RFU IRGQ (11745062_a_at) / Fold change /veh IRGQ (11745062_a_at) / RFU FAM174B (11720279_a_at) / Fold change /veh FAM174B (11720279_a_at) / RFU TMPRSS4 (11748680_a_at) / Fold change /veh TMPRSS4 (11748680_a_at) / RFU FAM212B (11763350_a_at) / Fold change /veh FAM212B (11763350_a_at) / RFU PLEKHG5 (11743358_a_at) / Fold change /veh PLEKHG5 (11743358_a_at) / RFU ZSCAN30 (11745921_a_at) / Fold change /veh ZSCAN30 (11745921_a_at) / RFU CMKLR1 (11741424_a_at) / Fold change /veh CMKLR1 (11741424_a_at) / RFU LOC101060620 /// MAPK8IP1 (11723275_at) / Fold change /veh LOC101060620 /// MAPK8IP1 (11723275_at) / RFU SPTSSB (11747773_x_at) / Fold change /veh SPTSSB (11747773_x_at) / RFU PRSS12 (11739890_at) / Fold change /veh PRSS12 (11739890_at) / RFU BIN1 (11741810_x_at) / Fold change /veh BIN1 (11741810_x_at) / RFU WNT11 (11732464_a_at) / Fold change /veh WNT11 (11732464_a_at) / RFU C10orf10 (11716521_a_at) / Fold change /veh C10orf10 (11716521_a_at) / RFU C5orf56 (11738089_at) / Fold change /veh C5orf56 (11738089_at) / RFU CYB561 (11721691_x_at) / Fold change /veh CYB561 (11721691_x_at) / RFU ANKRD19P (11752326_a_at) / Fold change /veh ANKRD19P (11752326_a_at) / RFU OR2T12 /// OR2T33 /// OR2T8 (11738714_s_at) / Fold change /veh OR2T12 /// OR2T33 /// OR2T8 (11738714_s_at) / RFU VCAN (11748164_a_at) / Fold change /veh VCAN (11748164_a_at) / RFU JSRP1 (11732532_at) / Fold change /veh JSRP1 (11732532_at) / RFU KRTAP10-11 (11738290_x_at) / Fold change /veh KRTAP10-11 (11738290_x_at) / RFU MYO3A (11730013_a_at) / Fold change /veh MYO3A (11730013_a_at) / RFU EBF3 (11725865_a_at) / Fold change /veh EBF3 (11725865_a_at) / RFU CAMK2N1 (11719241_x_at) / Fold change /veh CAMK2N1 (11719241_x_at) / RFU C5orf56 (11738088_a_at) / Fold change /veh C5orf56 (11738088_a_at) / RFU OLFML3 (11715873_a_at) / Fold change /veh OLFML3 (11715873_a_at) / RFU LOC100653217 /// NTM (11731650_a_at) / Fold change /veh LOC100653217 /// NTM (11731650_a_at) / RFU MAPK11 (11762145_a_at) / Fold change /veh MAPK11 (11762145_a_at) / RFU FIZ1 (11724087_x_at) / Fold change /veh FIZ1 (11724087_x_at) / RFU OASL (11726364_x_at) / Fold change /veh OASL (11726364_x_at) / RFU SOX15 (11748057_x_at) / Fold change /veh SOX15 (11748057_x_at) / RFU CD79A (11719716_a_at) / Fold change /veh CD79A (11719716_a_at) / RFU HIST1H1D (11736915_at) / Fold change /veh HIST1H1D (11736915_at) / RFU CASKIN2 (11723855_a_at) / Fold change /veh CASKIN2 (11723855_a_at) / RFU LOC730098 (11760151_x_at) / Fold change /veh LOC730098 (11760151_x_at) / RFU OR4N2 (11742367_at) / Fold change /veh OR4N2 (11742367_at) / RFU PRRT2 (11749266_a_at) / Fold change /veh PRRT2 (11749266_a_at) / RFU SNX32 (11753110_a_at) / Fold change /veh SNX32 (11753110_a_at) / RFU CDHR5 (11726645_a_at) / Fold change /veh CDHR5 (11726645_a_at) / RFU RCAN1 (11760418_a_at) / Fold change /veh RCAN1 (11760418_a_at) / RFU FAM167A (11723789_a_at) / Fold change /veh FAM167A (11723789_a_at) / RFU FAM26E (11764081_at) / Fold change /veh FAM26E (11764081_at) / RFU ISYNA1 (11749810_s_at) / Fold change /veh ISYNA1 (11749810_s_at) / RFU ACY1 (11761880_at) / Fold change /veh ACY1 (11761880_at) / RFU 11764098_at / Fold change /veh 11764098_at / RFU SAMD14 (11745864_x_at) / Fold change /veh SAMD14 (11745864_x_at) / RFU NPB (11741838_a_at) / Fold change /veh NPB (11741838_a_at) / RFU TMPRSS6 (11731388_a_at) / Fold change /veh TMPRSS6 (11731388_a_at) / RFU KRTAP10-2 (11738614_at) / Fold change /veh KRTAP10-2 (11738614_at) / RFU ARHGAP8 /// PRR5-ARHGAP8 (11727945_x_at) / Fold change /veh ARHGAP8 /// PRR5-ARHGAP8 (11727945_x_at) / RFU KRTAP5-7 /// NADSYN1 (11734609_at) / Fold change /veh KRTAP5-7 /// NADSYN1 (11734609_at) / RFU RASL12 (11751679_a_at) / Fold change /veh RASL12 (11751679_a_at) / RFU CDKN2B (11736163_a_at) / Fold change /veh CDKN2B (11736163_a_at) / RFU PRF1 (11729649_at) / Fold change /veh PRF1 (11729649_at) / RFU, ZNF638 /// ZNF638-IT1 / Fold change vs veh, ZNF638 /// ZNF638-IT1 / RFU, PANK3 / Fold change vs veh, PANK3 / RFU, SH3YL1 / Fold change vs veh, SH3YL1 / RFU, ZEB2 / Fold change vs veh, ZEB2 / RFU, NRIP1 / Fold change vs veh, NRIP1 / RFU, PTTG1IP / Fold change vs veh, PTTG1IP / RFU, CAPN2 / Fold change vs veh, CAPN2 / RFU, MED14 / Fold change vs veh, MED14 / RFU, SNORA58 / Fold change vs veh, SNORA58 / RFU, C1orf63 / Fold change vs veh, C1orf63 / RFU, LRRFIP1 / Fold change vs veh, LRRFIP1 / RFU, NDUFAF7 / Fold change vs veh, NDUFAF7 / RFU, SLC12A2 / Fold change vs veh, SLC12A2 / RFU, IBTK / Fold change vs veh, IBTK / RFU, ESF1 / Fold change vs veh, ESF1 / Fold change vs veh, TMEM50B / RFU, TAOK1 / Fold change vs veh, TAOK1 / RFU, ACBD3 / Fold change vs veh, ACBD3 / RFU, TMA16 / Fold change vs veh, TMA16 / RFU, RWDD3 / Fold change vs veh, RWDD3 / RFU, BCAT1 / Fold change vs veh, BCAT1 / RFU, EDEM3 / Fold change vs veh, EDEM3 / RFU, TMEM33 / Fold change vs veh, TMEM33 / RFU, WDR75 / Fold change vs veh, WDR75 / RFU, AHCTF1 / Fold change vs veh, AHCTF1 / RFU, TFRC / Fold change vs veh, TFRC / RFU, ZDHHC17 / Fold change vs veh, ZDHHC17 / RFU, NOM1 / Fold change vs veh, NOM1 / RFU, ARL8B / Fold change vs veh, ARL8B / RFU, ZBTB11 / Fold change vs veh, ZBTB11 / RFU, TAMM41 / Fold change vs veh, TAMM41 / RFU, KIAA1704 /// LOC100996395 / Fold change vs veh, KIAA1704 /// LOC100996395 / RFU, ING1 / Fold change vs veh, ING1 / RFU, TRMT61B / Fold change vs veh, TRMT61B / RFU, FUBP3 / Fold change vs veh, FUBP3 / RFU, TP53 / Fold change vs veh, TP53 / RFU, TNKS2 / Fold change vs veh, TNKS2 / RFU, ZFP14 / Fold change vs veh, ZFP14 / RFU, ACTR2 / Fold change vs veh, ACTR2 / RFU, PPP3R1 / Fold change vs veh, PPP3R1 / RFU, PIK3R1 / Fold change vs veh, PIK3R1 / RFU, HNRNPA1 / Fold change vs veh, HNRNPA1 / RFU, RNF170 / Fold change vs veh, RNF170 / RFU, ZNF28 / Fold change vs veh, ZNF28 / RFU, RNGTT / Fold change vs veh, RNGTT / RFU, OGT / Fold change vs veh, OGT / RFU, BRD1 / Fold change vs veh, BRD1 / RFU, MARS / Fold change vs veh, MARS / RFU, ZNF655 / Fold change vs veh, ZNF655 / RFU, FAHD1 / Fold change vs veh, FAHD1 / RFU, BDP1 / Fold change vs veh, BDP1 / RFU, LRRCC1 / Fold change vs veh, LRRCC1 / RFU, ARID1A / Fold change vs veh, ARID1A / RFU, ZNF146 / Fold change vs veh, ZNF146 / RFU, ZNF330 / Fold change vs veh, ZNF330 / RFU, GPN3 / Fold change vs veh, GPN3 / RFU, C9orf123 / Fold change vs veh, C9orf123 / RFU, N4BP2L2 / Fold change vs veh, N4BP2L2 / RFU, ARFIP1 / Fold change vs veh, ARFIP1 / RFU, FAM179B / Fold change vs veh, FAM179B / RFU, BCL10 / Fold change vs veh, BCL10 / RFU, UHRF1BP1L / Fold change vs veh, UHRF1BP1L / RFU, BET1 / Fold change vs veh, BET1 / RFU, CNOT2 / Fold change vs veh, CNOT2 / RFU, ZNF268 / Fold change vs veh, ZNF268 / Fold change vs veh, ZNF507 / RFU, DGCR2 / Fold change vs veh, DGCR2 / RFU, WDSUB1 / Fold change vs veh, WDSUB1 / Fold change vs veh, HSP90B1 /// MIR3652 / RFU, ADSS / Fold change vs veh, ADSS / RFU, GK / Fold change vs veh, GK / RFU, ZNF148 / Fold change vs veh, ZNF148 / RFU, TAF9 / Fold change vs veh, TAF9 / RFU, SLC1A5 / Fold change vs veh, SLC1A5 / RFU, SLMO2 / Fold change vs veh, SLMO2 / RFU, ABCC4 / Fold change vs veh, ABCC4 / RFU, LOC101060439 /// RAP1B / Fold change vs veh, LOC101060439 /// RAP1B / RFU, RFX7 / Fold change vs veh, RFX7 / RFU, GTPBP10 / Fold change vs veh, GTPBP10 / RFU, CNEP1R1 / Fold change vs veh, CNEP1R1 / RFU, BIVM-ERCC5 /// ERCC5 / Fold change vs veh, BIVM-ERCC5 /// ERCC5 / RFU, ILF3 / Fold change vs veh, ILF3 / RFU 11762660_at / Fold change /veh 11762660_at / RFU VCAN (11757783_s_at) / Fold change /veh VCAN (11757783_s_at) / RFU DDX43 (11728927_at) / Fold change /veh DDX43 (11728927_at) / RFU KRT8 (11758188_x_at) / Fold change /veh KRT8 (11758188_x_at) / RFU NKD1 (11759106_at) / Fold change /veh NKD1 (11759106_at) / RFU SRD5A1 (11742802_a_at) / Fold change /veh SRD5A1 (11742802_a_at) / RFU TPSAB1 /// TPSB2 (11721975_s_at) / Fold change /veh TPSAB1 /// TPSB2 (11721975_s_at) / RFU GSTM3 (11746129_a_at) / Fold change /veh GSTM3 (11746129_a_at) / RFU IL23R (11737362_x_at) / Fold change /veh IL23R (11737362_x_at) / RFU TMEM51 (11727254_a_at) / Fold change /veh TMEM51 (11727254_a_at) / RFU PIWIL2 (11732686_x_at) / Fold change /veh PIWIL2 (11732686_x_at) / RFU ORM1 (11744905_x_at) / Fold change /veh ORM1 (11744905_x_at) / RFU CCDC152 (11743942_at) / Fold change /veh CCDC152 (11743942_at) / RFU ECM1 (11717891_a_at) / Fold change /veh ECM1 (11717891_a_at) / RFU IL23R (11748794_a_at) / Fold change /veh IL23R (11748794_a_at) / RFU TNFAIP8L3 (11732012_x_at) / Fold change /veh TNFAIP8L3 (11732012_x_at) / RFU MBOAT4 (11741988_at) / Fold change /veh MBOAT4 (11741988_at) / RFU 11764193_at / Fold change /veh 11764193_at / RFU TMEM53 (11763286_at) / Fold change /veh TMEM53 (11763286_at) / RFU MAGEB2 (11727129_at) / Fold change /veh MAGEB2 (11727129_at) / RFU TMEM200A (11744735_a_at) / Fold change /veh TMEM200A (11744735_a_at) / RFU CCDC152 (11751479_a_at) / Fold change /veh CCDC152 (11751479_a_at) / RFU FAM211A (11726209_a_at) / Fold change /veh FAM211A (11726209_a_at) / RFU RGS16 (11746705_a_at) / Fold change /veh RGS16 (11746705_a_at) / RFU VCAN (11755009_s_at) / Fold change /veh VCAN (11755009_s_at) / RFU RHOB (11743442_s_at) / Fold change /veh RHOB (11743442_s_at) / RFU RGS16 (11720943_a_at) / Fold change /veh RGS16 (11720943_a_at) / RFU RGS16 (11720944_at) / Fold change /veh RGS16 (11720944_at) / RFU, VPS4B / Fold change vs veh, VPS4B / RFU, CREB1 / Fold change vs veh, CREB1 / RFU, DNAJC13 / Fold change vs veh, DNAJC13 / RFU, GNAQ / Fold change vs veh, GNAQ / RFU, CDK5R1 / Fold change vs veh, CDK5R1 / RFU, ZRANB3 / Fold change vs veh, ZRANB3 / RFU, CUL4A / Fold change vs veh, CUL4A / RFU, CCNY / Fold change vs veh, CCNY / RFU, UFL1 / Fold change vs veh, UFL1 / RFU, COG3 / Fold change vs veh, COG3 / RFU, DIAPH2 / Fold change vs veh, DIAPH2 / RFU, SKA2 / Fold change vs veh, SKA2 / RFU, AFF3 / Fold change vs veh, AFF3 / RFU, LMF1 / Fold change vs veh, LMF1 / RFU, IPO11 / Fold change vs veh, IPO11 / RFU, DFFB / Fold change vs veh, DFFB / RFU, FOXP1 / Fold change vs veh, FOXP1 / RFU, CARD8 / Fold change vs veh, CARD8 / RFU, STRN3 / Fold change vs veh, STRN3 / RFU, ADK / Fold change vs veh, ADK / RFU, RASSF2 / Fold change vs veh, RASSF2 / RFU, WIPF1 / Fold change vs veh, WIPF1 / RFU, LARP1B / Fold change vs veh, LARP1B / RFU, RASA1 / Fold change vs veh, RASA1 / RFU, RB1 / Fold change vs veh, RB1 / RFU, PPFIA1 / Fold change vs veh, PPFIA1 / RFU, MAT2A / Fold change vs veh, MAT2A / RFU, CCT5 / Fold change vs veh, CCT5 / RFU, WDR92 / Fold change vs veh, WDR92 / RFU, CUX1 / Fold change vs veh, CUX1 / RFU, TTC7A / Fold change vs veh, TTC7A / RFU, TMEM135 / Fold change vs veh, TMEM135 / RFU, DEPTOR / Fold change vs veh, DEPTOR / RFU, CPM / Fold change vs veh, CPM / RFU, DNAJB6 / Fold change vs veh, DNAJB6 / RFU, CACNA2D3 / Fold change vs veh, CACNA2D3 / RFU, DTX4 / Fold change vs veh, DTX4 / RFU, TFCP2 / Fold change vs veh, TFCP2 / RFU, GMCL1 /// GMCL1P1 / Fold change vs veh, GMCL1 /// GMCL1P1 / RFU, AEBP2 / Fold change vs veh, AEBP2 / RFU, SNHG1 /// SNORD22 /// SNORD25 /// SNORD26 /// SNORD27 /// SNORD28 /// SNORD29 /// SNORD31 / Fold change vs veh, SNHG1 /// SNORD22 /// SNORD25 /// SNORD26 /// SNORD27 /// SNORD28 /// SNORD29 /// SNORD31 / Fold change (Aza/veh), C12orf56 (ProbeSet 11735607_a_at) / Fold change (ACY-1035/veh), C12orf56 (ProbeSet 11735607_a_at) / Fold change (Aza/veh), FGFR1OP (ProbeSet 11751329_s_at) / Fold change (ACY-1035/veh), FGFR1OP (ProbeSet 11751329_s_at) / Fold change (Aza/veh), VPS36 (ProbeSet 11739960_a_at) / Fold change (ACY-1035/veh), VPS36 (ProbeSet 11739960_a_at) / RFU SYPL1 (11715823_x_at) / Fold change /veh SYPL1 (11715823_x_at) / RFU IGFBP7 (11715501_s_at) / Fold change /veh IGFBP7 (11715501_s_at) / RFU REEP3 (11722064_at) / Fold change /veh REEP3 (11722064_at) / RFU IGLL1 (11728026_x_at) / Fold change /veh IGLL1 (11728026_x_at): dose or concentration left out as unconfirmed
Conditions: MV-4-11 cells, 48 hours

## Nc1ncn([C@@H]2O[C@H](CO)[C@@H](O)[C@H]2O)c(=O)n1 [azacitidine]
  RFU LRRC4B (11730491_at): 28.29 RFU
